Assay: Short-term storage stability of emulsions (drug conc., pH, particle size)
Type: physicochemical
Conditions: for stability in the emulsion formulation: over 12 weeks, 5° C. and 40° C.; for Cinacalcet conc. / D(4, 3) / pH: emulsion
Text: This Example illustrates the effect of the storage temperature on short-term stability of the formulations of the invention as measured by pH and the size of the droplets. The results of short term stability of cinacalcet at different temperatures and varying TRIS buffer concentrations are presented in Table 8. Cinacalcet was stable in the emulsion formulation over 12 weeks. The pH of the emulsion is lower over time for both placebo and cinacalcet emulsions. The drop in pH is less at lower storage temperature and higher TRIS concentration.
The results of short-term stability of cinacalcet at different temperatures and varying DEA buffer concentrations are presented in Table 9. Cinacalcet was stable in the emulsion formulation over 12 weeks. pH of the emulsion is lower over time for both placebo and cinacalcet emulsion. The drop in pH is less at lower storage temperature and higher DEA concentration.

## C[C@@H](NCCCc1cccc(C(F)(F)F)c1)c1cccc2ccccc12 [Cinacalcet, N-(1-(R)-(1-naphthyl)ethyl]-3-[3-(trifluoromethyl)phenyl]-1-aminopropane]
DEA buffered emulsion
  stability in the emulsion formulation: stable
TRIS buffered emulsion
  stability in the emulsion formulation: stable
DEA 0.05%, 5° C., 0 weeks
  Cinacalcet conc.: 4.42 mg/mL
  D(4, 3): 0.39 µm
  pH: 8.77
DEA 0.05%, 5° C., 2 weeks
  Cinacalcet conc.: 4.14 mg/mL
  D(4, 3): 0.39 µm
  pH: 8.64
DEA 0.05%, 5° C., 4 weeks
  Cinacalcet conc.: 4.35 mg/mL
  D(4, 3): 0.4 µm
  pH: 8.65
DEA 0.05%, 5° C., 6 weeks
  Cinacalcet conc.: 4.28 mg/mL
  D(4, 3): 0.76 µm
  pH: 8.59
DEA 0.05%, 5° C., 8 weeks
  Cinacalcet conc.: 4.43 mg/mL
  D(4, 3): 0.4 µm
  pH: 8.67
DEA 0.05%, 5° C., 12 weeks
  Cinacalcet conc.: 4.29 mg/mL
  D(4, 3): 0.4 µm
  pH: 8.58
DEA 0.05%, 40° C., 0 weeks
  Cinacalcet conc.: 4.42 mg/mL
  D(4, 3): 0.39 µm
  pH: 8.77
DEA 0.05%, 40° C., 2 weeks
  Cinacalcet conc.: 4.15 mg/mL
  D(4, 3): 0.39 µm
  pH: 8.46
DEA 0.05%, 40° C., 4 weeks
  Cinacalcet conc.: 4.30 mg/mL
  D(4, 3): 0.4 µm
  pH: 8.36
DEA 0.05%, 40° C., 6 weeks
  Cinacalcet conc.: 4.28 mg/mL
  D(4, 3): 0.39 µm
  pH: 8.25
DEA 0.05%, 40° C., 8 weeks
  Cinacalcet conc.: 4.39 mg/mL
  D(4, 3): 0.43 µm
  pH: 8.29
DEA 0.05%, 40° C., 12 weeks
  Cinacalcet conc.: 4.31 mg/mL
  D(4, 3): 0.43 µm
  pH: 8.12
DEA 0.30%, 5° C., 0 weeks
  Cinacalcet conc.: 4.78 mg/mL
  D(4, 3): 0.36 µm
  pH: 9.12
DEA 0.30%, 5° C., 2 weeks
  Cinacalcet conc.: 4.60 mg/mL
  D(4, 3): 0.35 µm
  pH: 9.07
DEA 0.30%, 5° C., 4 weeks
  Cinacalcet conc.: 4.67 mg/mL
  D(4, 3): 0.37 µm
  pH: 9.12
DEA 0.30%, 5° C., 6 weeks
  Cinacalcet conc.: 4.60 mg/mL
  D(4, 3): 0.37 µm
  pH: 9.11
DEA 0.30%, 5° C., 8 weeks
  Cinacalcet conc.: 4.79 mg/mL
  D(4, 3): 0.37 µm
  pH: 9.15
DEA 0.30%, 5° C., 12 weeks
  Cinacalcet conc.: 4.66 mg/mL
  D(4, 3): 0.36 µm
DEA 0.30%, 40° C., 0 weeks
  Cinacalcet conc.: 4.78 mg/mL
  D(4, 3): 0.36 µm
  pH: 9.12
DEA 0.30%, 40° C., 2 weeks
  Cinacalcet conc.: 4.58 mg/mL
  D(4, 3): 0.36 µm
  pH: 8.98
DEA 0.30%, 40° C., 4 weeks
  Cinacalcet conc.: 4.73 mg/mL
  D(4, 3): 0.36 µm
  pH: 8.99
DEA 0.30%, 40° C., 6 weeks
  Cinacalcet conc.: 4.65 mg/mL
  D(4, 3): 0.36 µm
  pH: 8.93
DEA 0.30%, 40° C., 8 weeks
  Cinacalcet conc.: 4.83 mg/mL
  D(4, 3): 0.37 µm
  pH: 8.95
DEA 0.30%, 40° C., 12 weeks
  Cinacalcet conc.: 4.71 mg/mL
  D(4, 3): 0.38 µm
TRIS 5 mM, 5° C., 0 weeks
  Cinacalcet conc.: 4.43 mg/mL
  D(4, 3): 0.31 µm
  pH: 8.80
TRIS 5 mM, 5° C., 2 weeks
  Cinacalcet conc.: 4.18 mg/mL
  D(4, 3): 0.31 µm
  pH: 8.69
TRIS 5 mM, 5° C., 4 weeks
  Cinacalcet conc.: 4.38 mg/mL
  D(4, 3): 0.3 µm
  pH: 8.65
TRIS 5 mM, 5° C., 6 weeks
  Cinacalcet conc.: 4.33 mg/mL
  D(4, 3): 0.3 µm
  pH: 8.59
TRIS 5 mM, 5° C., 8 weeks
  Cinacalcet conc.: 4.47 mg/mL
  D(4, 3): 0.31 µm
  pH: 8.60
TRIS 5 mM, 5° C., 12 weeks
  Cinacalcet conc.: 4.32 mg/mL
  D(4, 3): 0.31 µm
  pH: 8.50
TRIS 5 mM, 40° C., 0 weeks
  Cinacalcet conc.: 4.43 mg/mL
  D(4, 3): 0.31 µm
  pH: 8.80
TRIS 5 mM, 40° C., 2 weeks
  Cinacalcet conc.: 4.17 mg/mL
  D(4, 3): 0.31 µm
  pH: 8.41
TRIS 5 mM, 40° C., 4 weeks
  Cinacalcet conc.: 4.36 mg/mL
  D(4, 3): 0.31 µm
  pH: 8.29
TRIS 5 mM, 40° C., 6 weeks
  Cinacalcet conc.: 4.29 mg/mL
  D(4, 3): 0.47 µm
  pH: 8.20
TRIS 5 mM, 40° C., 8 weeks
  Cinacalcet conc.: 4.45 mg/mL
  D(4, 3): 0.48 µm
  pH: 8.11
TRIS 5 mM, 40° C., 12 weeks
  Cinacalcet conc.: 4.33 mg/mL
  D(4, 3): 0.36 µm
  pH: 8.12
TRIS 20 mM, 5° C., 0 weeks
  Cinacalcet conc.: 4.92 mg/mL
  D(4, 3): 0.29 µm
  pH: 9.13
TRIS 20 mM, 5° C., 2 weeks
  Cinacalcet conc.: 4.47 mg/mL
  D(4, 3): 0.29 µm
  pH: 8.98
TRIS 20 mM, 5° C., 4 weeks
  Cinacalcet conc.: 4.79 mg/mL
  D(4, 3): 0.29 µm
  pH: 8.99
TRIS 20 mM, 5° C., 6 weeks
  Cinacalcet conc.: 4.72 mg/mL
  D(4, 3): 0.28 µm
  pH: 8.87
TRIS 20 mM, 5° C., 8 weeks
  Cinacalcet conc.: 4.91 mg/mL
  D(4, 3): 0.29 µm
  pH: 9.02
TRIS 20 mM, 5° C., 12 weeks
  Cinacalcet conc.: 4.76 mg/mL
  D(4, 3): 0.29 µm
  pH: 8.93
TRIS 20 mM, 40° C., 0 weeks
  Cinacalcet conc.: 4.92 mg/mL
  D(4, 3): 0.29 µm
  pH: 9.13
TRIS 20 mM, 40° C., 2 weeks
  Cinacalcet conc.: 4.48 mg/mL
  D(4, 3): 0.29 µm
  pH: 8.82
TRIS 20 mM, 40° C., 4 weeks
  Cinacalcet conc.: 4.75 mg/mL
  D(4, 3): 0.29 µm
  pH: 8.79
TRIS 20 mM, 40° C., 6 weeks
  Cinacalcet conc.: 4.73 mg/mL
  D(4, 3): 0.29 µm
  pH: 8.75
TRIS 20 mM, 40° C., 8 weeks
  Cinacalcet conc.: 4.96 mg/mL
  D(4, 3): 0.29 µm
  pH: 8.76
TRIS 20 mM, 40° C., 12 weeks
  Cinacalcet conc.: 4.82 mg/mL
  D(4, 3): 0.29 µm
  pH: 8.63

From US8779004B2, “Stable emulsion formulations” (Amgen, Inc., priority 2006, dated 2014)
